Measurements reported in patent US20100178651A1, “Bifunctional Predictors of Cancer Treatment Sensitivity and Resistance” (priority 2006, published 2010).

How the values were obtained:
[1] = test system: breast cancer cells; assay: Drug sensitivity of breast cancer cells after down regulation of Tau by siRNA; assay type: cell-based; conditions: cancer cells in vitro
Excerpt: Low expression of Tau is associated with known clinicopathological predictors of response to chemotherapy such as ER-negative status and high nuclear grade. However, in contrast to these predictors that are not treatment regimen-specific, low Tau may predict extreme sensitivity to a particular drug, paclitaxel. Since Tau is a microtubule associated protein, Tau has a mechanistic role in determining cellular response to paclitaxel, which is a microtubule poison.
The inventors have validated this association at the protein level on an independent set of patients (n=122) using immunohistochemistry. […] Tau partially protects cells from paclitaxel induced apoptosis by reducing paclitaxel binding to tubulin and reducing paclitaxel induced microtubule polymerization. […] As described herein, low levels of Tau mRNA expression as measured by, but not limited to, cDNA microarrays or Tau protein expression detected by immunohistochemistry, are associated with higher rates of pathologic CR to T/FAC pre-operative chemotherapy for stage I-III breast cancer. […] Pathologic CR in this context means complete eradication of the invasive cancer from the breast and lymph nodes by chemotherapy and has consistently been associated with excellent long-term survival that is independent of other tumor characteristics.

[2] = test system: ER-positive breast cancer; assay: 5 years of adjuvant tamoxifen in patients with ER-positive breast cancer: distant relapse; assay type: in vivo, human; conditions: for 10-year distant metastasis-free survival: adjuvant tamoxifen
Protocol: To examine the value of Tau as predictor of survival after 5 years of adjuvant tamoxifen therapy, we used data provided by the Institut Jules Bordet. This included gene expression and survival data on 267 patients with ER-positive tumors treated with adjuvant tamoxifen. […] In all data sets, ER-status was determined from routine pathological assessment including immunohistochemistry or ER-ligand-binding assay for the older specimens. The cut-off for ER-positivity was 10 fmol/mg protein or >10% positive cells by immunohistochemistry.
This test was used because of the non-normal distribution of Tau. The prognostic value of Tau in untreated and tamoxifen-treated patients was assessed by examining the association between Tau expression and the occurrence of distant metastases using the Wilcoxon test. To assess if covariates including grade, tumor size and nodal status were associated with Tau levels we performed multivariate linear regression analysis. Kaplan-Meier survival curves were compared using the Log-rank test. In order to generate Kaplan-Meier curves, patients had to be assigned to various Tau expression groups. However, no cut off points have been established previously to assign low or high Tau status to cases based on microarray results. Furthermore, normalized expression values differed between the data sets, particularly for the prognostic data set that used different normalization procedure. In the absence of accepted cut off values and considering the non-normal expression distribution of Tau, we grouped patients by tertiles and quartiles.

[3] = Tamoxifen treated group (n = 267)

SMILES	change of sensitivity to the drug on down regulation of Tau with siRNA [1]	Metastases within 5 years: No, patients (%) [2, 3]	Metastases within 5 years: Yes, patients (%) [2, 3]	10-year distant metastasis-free survival ([2]; Tau mRNA levels <183)	10-year distant metastasis-free survival ([2]; Tau mRNA levels >183)
COc1cccc2c1C(=O)c1c(O)c3c(c(O)c1C2=O)C[C@@](O)(C(=O)CO)C[C@@H]3O[C@H]1C[C@H](N)[C@@H](O)[C@H](C)O1 [epirubicin]	not to epirubicin				
CC(=O)O[C@H]1C(=O)[C@@]2(C)[C@H]([C@H](OC(=O)c3ccccc3)[C@]3(O)C[C@H](OC(=O)[C@H](O)[C@@H](NC(=O)c4ccccc4)c4ccccc4)C(C)=C1C3(C)C)[C@]1(OC(C)=O)CO[C@@H]1C[C@@H]2O [paclitaxel]	increases their sensitivity				
CC/C(=C(\c1ccccc1)c1ccc(OCCN(C)C)cc1)c1ccccc1 [tamoxifen]		160 (60%)	38 (14%)	65%	78%
